In patent publication US7432260B2, “Pyrimidine compounds” (Cyclacel Limted, priority 2002, dated 2008):
Read-outs that look alike come from different tables or passages of the source.

What was measured:
A549 = test: 72-h MTT cytotoxicity assay A549; format: cell-based; conditions: Homo sapiens, A549, 72 h
Outline: (§1)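 Standard MTT test: 72 h drug exposure at 37° C, 1/3 dilution steps, triplicates, then 4 h MTT and DMSO solubilisation.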

CDK9/cyclin T1 = CDK9/cyclin T1 (Homo sapiens, UniProt P50750); test: CDK9 assay; format: biochemical
Sequence of CDK9/cyclin T1 (P50750 whole entry): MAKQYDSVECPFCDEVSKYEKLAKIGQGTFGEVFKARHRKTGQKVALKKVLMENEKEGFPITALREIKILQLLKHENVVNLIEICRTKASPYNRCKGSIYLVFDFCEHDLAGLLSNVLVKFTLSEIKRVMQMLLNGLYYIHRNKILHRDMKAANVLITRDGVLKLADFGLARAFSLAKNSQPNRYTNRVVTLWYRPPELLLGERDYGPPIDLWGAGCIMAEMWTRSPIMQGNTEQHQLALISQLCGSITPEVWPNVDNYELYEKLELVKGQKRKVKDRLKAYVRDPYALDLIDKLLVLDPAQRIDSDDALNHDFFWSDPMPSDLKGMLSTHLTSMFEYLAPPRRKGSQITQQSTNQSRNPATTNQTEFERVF
Sequence of CDK9/cyclin T1 (O60563 whole entry partner): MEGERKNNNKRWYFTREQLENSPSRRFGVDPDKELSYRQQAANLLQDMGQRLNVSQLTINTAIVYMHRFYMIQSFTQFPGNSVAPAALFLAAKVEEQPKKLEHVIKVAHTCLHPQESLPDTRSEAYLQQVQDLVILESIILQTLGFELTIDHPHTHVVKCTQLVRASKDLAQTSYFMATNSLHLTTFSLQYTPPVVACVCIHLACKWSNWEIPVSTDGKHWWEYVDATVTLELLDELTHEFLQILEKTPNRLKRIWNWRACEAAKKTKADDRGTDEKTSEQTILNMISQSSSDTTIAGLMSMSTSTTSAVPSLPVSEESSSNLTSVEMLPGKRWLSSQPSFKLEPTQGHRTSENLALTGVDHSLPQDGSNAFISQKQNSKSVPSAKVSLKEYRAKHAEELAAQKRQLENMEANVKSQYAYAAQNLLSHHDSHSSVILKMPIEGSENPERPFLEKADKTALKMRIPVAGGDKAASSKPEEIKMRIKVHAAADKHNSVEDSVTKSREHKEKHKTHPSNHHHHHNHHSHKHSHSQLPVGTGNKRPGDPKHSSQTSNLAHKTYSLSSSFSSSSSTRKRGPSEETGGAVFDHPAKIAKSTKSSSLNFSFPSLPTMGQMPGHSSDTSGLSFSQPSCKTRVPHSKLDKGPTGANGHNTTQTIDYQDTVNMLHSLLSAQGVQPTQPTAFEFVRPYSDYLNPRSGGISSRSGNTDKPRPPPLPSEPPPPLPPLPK
Outline: (§2)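 Recombinant human CDK7/cyclin H or CDK9/cyclin T1 (0.5–2 μg) phosphorylated biotinylated CTD heptapeptide-repeat substrate for 45 min at 30 °C in MOPS pH 7.2 buffer with 15 mM MgCl2 and 100 μM ATP plus [γ-32P]ATP. After avidin capture on P81 filters and phosphoric acid washes, 32P incorporation was counted by scintillation.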

GSK-3β = GSK-3β (Homo sapiens, UniProt P49841); test: Kinase assay GSK-3β; format: biochemical
Sequence of GSK-3β (P49841 whole entry): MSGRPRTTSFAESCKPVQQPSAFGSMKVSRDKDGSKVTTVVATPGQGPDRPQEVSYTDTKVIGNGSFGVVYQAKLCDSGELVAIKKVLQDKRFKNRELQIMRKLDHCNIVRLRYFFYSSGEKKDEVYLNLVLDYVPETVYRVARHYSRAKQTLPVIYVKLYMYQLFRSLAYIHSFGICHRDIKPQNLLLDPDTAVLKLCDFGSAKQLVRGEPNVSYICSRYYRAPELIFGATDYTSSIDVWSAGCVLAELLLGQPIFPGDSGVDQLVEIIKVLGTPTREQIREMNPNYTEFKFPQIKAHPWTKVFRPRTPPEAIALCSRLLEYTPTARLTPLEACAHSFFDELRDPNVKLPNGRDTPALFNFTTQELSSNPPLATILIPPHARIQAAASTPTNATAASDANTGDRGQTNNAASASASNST
Outline: (§3)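 Enzyme + substrate in β-glycerophosphate/MOPS/EGTA/DTT buffer, pH 7.4 → Mg/ATP (100 μM ATP, γ-32P) start → 30° C incubation → ice stop → P81 or GF/C filtration, H3PO4 wash → scintillation count.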

HT29 = test: 72-h MTT cytotoxicity assay HT29; format: cell-based; conditions: Homo sapiens, HT-29, 72 h
Outline: as §1

CDK4/cyclin D1 = CDK4/cyclin D1 (Homo sapiens, UniProt P11802); test: Kinase assay CDK4/cyclin D1; format: biochemical
Sequence of CDK4/cyclin D1 (P11802 whole entry): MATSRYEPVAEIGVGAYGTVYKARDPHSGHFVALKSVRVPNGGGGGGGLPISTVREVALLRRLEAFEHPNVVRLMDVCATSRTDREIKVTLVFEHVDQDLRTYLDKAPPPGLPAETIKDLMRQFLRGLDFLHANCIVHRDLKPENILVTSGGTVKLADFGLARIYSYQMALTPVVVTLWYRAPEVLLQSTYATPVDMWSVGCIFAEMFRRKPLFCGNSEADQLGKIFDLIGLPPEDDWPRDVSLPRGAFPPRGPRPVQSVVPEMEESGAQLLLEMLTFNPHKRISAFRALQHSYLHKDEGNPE
Sequence of CDK4/cyclin D1 (P24385 whole entry partner): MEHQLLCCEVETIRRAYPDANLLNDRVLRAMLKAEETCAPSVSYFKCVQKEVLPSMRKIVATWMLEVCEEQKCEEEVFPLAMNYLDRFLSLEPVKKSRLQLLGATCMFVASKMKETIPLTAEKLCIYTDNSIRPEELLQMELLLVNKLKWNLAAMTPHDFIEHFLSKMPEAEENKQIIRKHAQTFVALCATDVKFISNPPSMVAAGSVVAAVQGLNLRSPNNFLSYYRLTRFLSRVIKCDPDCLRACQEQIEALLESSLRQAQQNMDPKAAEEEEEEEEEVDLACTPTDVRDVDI
Outline: as §3

Saos-2 = test: 72-h MTT cytotoxicity assay Saos-2; format: cell-based; conditions: Homo sapiens, SAOS-2, 72 h
Outline: as §1

CDK7/cyclin H = CDK7/cyclin H (Homo sapiens, UniProt P50613); test: CDK7 assay; format: biochemical
Sequence of CDK7/cyclin H (P50613 whole entry): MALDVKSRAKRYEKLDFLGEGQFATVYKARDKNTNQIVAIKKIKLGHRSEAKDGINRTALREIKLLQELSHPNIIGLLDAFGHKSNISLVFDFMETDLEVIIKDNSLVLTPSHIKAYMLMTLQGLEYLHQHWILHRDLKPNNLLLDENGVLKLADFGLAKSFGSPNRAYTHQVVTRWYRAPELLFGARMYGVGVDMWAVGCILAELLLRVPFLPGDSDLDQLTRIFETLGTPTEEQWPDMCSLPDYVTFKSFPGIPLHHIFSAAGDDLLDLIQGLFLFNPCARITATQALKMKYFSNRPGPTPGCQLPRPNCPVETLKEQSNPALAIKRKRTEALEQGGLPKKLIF
Outline: as §2

CDK1/cyclin B = CDK1/cyclin B (Homo sapiens, UniProt P06493); test: Kinase assay CDK1/cyclin B; format: biochemical
Sequence of CDK1/cyclin B (P06493 whole entry): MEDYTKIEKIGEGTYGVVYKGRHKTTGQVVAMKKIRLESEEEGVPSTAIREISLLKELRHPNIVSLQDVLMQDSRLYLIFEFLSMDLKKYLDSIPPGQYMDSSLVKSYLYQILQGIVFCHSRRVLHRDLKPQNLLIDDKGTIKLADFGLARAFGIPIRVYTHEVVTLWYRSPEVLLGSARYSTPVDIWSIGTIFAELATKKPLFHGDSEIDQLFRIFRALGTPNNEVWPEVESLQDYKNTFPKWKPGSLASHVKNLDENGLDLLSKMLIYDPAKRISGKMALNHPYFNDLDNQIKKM
Sequence of CDK1/cyclin B (P14635 whole entry partner): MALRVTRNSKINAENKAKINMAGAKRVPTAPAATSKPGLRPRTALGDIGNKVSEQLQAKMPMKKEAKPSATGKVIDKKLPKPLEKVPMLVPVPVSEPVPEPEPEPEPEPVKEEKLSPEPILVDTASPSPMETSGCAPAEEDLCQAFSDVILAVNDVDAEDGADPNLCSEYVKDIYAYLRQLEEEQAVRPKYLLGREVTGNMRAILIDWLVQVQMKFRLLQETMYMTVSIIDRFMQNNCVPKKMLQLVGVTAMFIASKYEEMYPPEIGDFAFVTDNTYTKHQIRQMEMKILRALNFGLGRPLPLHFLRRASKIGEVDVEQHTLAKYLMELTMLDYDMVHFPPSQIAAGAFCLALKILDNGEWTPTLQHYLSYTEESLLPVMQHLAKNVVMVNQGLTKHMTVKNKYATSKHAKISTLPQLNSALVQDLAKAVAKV
Outline: as §3

CCRF-CEM = test: 72-h MTT cytotoxicity assay CCRF-CEM; format: cell-based; conditions: Homo sapiens, Table 5, Leukemia
Procedure: (§4) MTT cytotoxicity assay. […] Standard 72-h MTT (thiazolyl blue; 3-[4,5-dimethylthiazol-2-yl]-2,5-diphenyltetrazolium bromide) assays were performed (Haselsberger, K.; Peterson, D. C.; Thomas, D. G.; Darling, J. L. Anti Cancer Drugs 1996, 7, 331-8; Loveland, B. E.; Johns, T. G.; Mackay, I. R.; Vaillant, F.; Wang, Z. X.; Hertzog, P. J. Biochemistry International 1992, 27, 501-10). In short: cells were seeded into 96-well plates according to doubling time and incubated overnight at 37° C. Test compounds were made up in DMSO and a 1/3 dilution series prepared in 100 μL cell media, added to cells (in triplicates) and incubated for 72 ho at 37° C. MTT was made up as a stock of 5 mg/mL in cell media and filter-sterilised. Media was removed from cells followed by a wash with 200 μL PBS.
(§5) MTT solution was then added at 20 μL per well and incubated in the dark at 37° C. for 4 h. MTT solution was removed and cells again washed with 200 μL PBS. MTT dye was solubilised with 200 μL per well of DMSO with agitation.

SKUT-1 = test: 72-h MTT cytotoxicity assay SKUT-1; format: cell-based; conditions: Homo sapiens, SK-UT-1, 72 h; Table 5; Leiomyosarcoma
Procedure: as §4, §5

DU-145 = test: 72-h MTT cytotoxicity assay DU-145; format: cell-based; conditions: Homo sapiens, DU-145, 72 h; Table 5; Prostate
Procedure: as §4, §5

Hs27 = test: 72-h MTT cytotoxicity assay Hs27; format: cell-based; conditions: Homo sapiens, HS27, 72 h; Table 5; Foreskin fibroblast (non-transformed)
Procedure: as §4, §5

WI38 = test: 72-h MTT cytotoxicity assay WI38; format: cell-based; conditions: Homo sapiens, WI-38, 72 h; Table 5; Foetal lung fibroblast (non-transformed)
Procedure: as §4, §5

SK-N-MC = test: 72-h MTT cytotoxicity assay SK-N-MC; format: cell-based; conditions: Homo sapiens, Table 5, Neuroblastoma
Procedure: as §4, §5

U2OS = test: 72-h MTT cytotoxicity assay U2OS; format: cell-based; conditions: Homo sapiens, Table 5, Bone osteosarcoma
Procedure: as §4, §5

K562 = test: 72-h MTT cytotoxicity assay K562; format: cell-based; conditions: Homo sapiens, K562, 72 h; Table 5; Chronic myelogenous leukaemia
Procedure: as §4, §5

Hela = test: 72-h MTT cytotoxicity assay Hela; format: cell-based; conditions: Homo sapiens, Table 5, Cervix
Procedure: as §4, §5

[1] = molecular target: CaMKII (calmodulin-depependent kinase II); test: Kinase assay CaMKII; format: biochemical; conditions: Table 3 selectivity panel; read-out: Kinase specificity IC50 CaMKII
Procedure: (§6) Kinase assays. […] This was achieved by measurement of incorporation of radioactive phosphate from ATP into appropriate polypeptide substrates. Recombinant protein kinases and kinase complexes were produced or obtained commercially. Assays were performed using 96-well plates and appropriate assay buffers (typically 25 mM β-glycerophosphate, 20 mM MOPS, 5 mM EGTA, 1 mM DTT, 1 mM […], pH 7.4), into which were added 2-4 μg of active enzyme with appropriate substrates. The reactions were initiated by addition of Mg/ATP mix (15 mM MgCl2+100 μM ATP with 30-50 kBq per well of [γ-^32P]-ATP) and mixtures incubated as required at 30° C. Reactions were stopped on ice, followed by filtration through p81 filterplates or GF/C filterplates (Whatman Polyfiltronics, Kent, UK). After washing 3 times with 75 mM aq orthophosphoric acid, plates were dried, scintillant added and incorporated radioactivity measured in a scintillation counter (TopCount, Packard Instruments, Pangbourne, Berks, UK). Compounds for kinase assay were made-up as 10 mM stocks in DMSO and diluted into 10% DMSO inrassay buffer.

[2] = molecular target: SAPK2a (stress-activated protein kinase 2a) (Homo sapiens, UniProt Q16539); test: Kinase assay SAPK2a; format: biochemical; conditions: Table 3 selectivity panel; read-out: Kinase specificity IC50 SAPK2a
Sequence of SAPK2a (stress-activated protein kinase 2a) (Q16539 whole entry, species assumed): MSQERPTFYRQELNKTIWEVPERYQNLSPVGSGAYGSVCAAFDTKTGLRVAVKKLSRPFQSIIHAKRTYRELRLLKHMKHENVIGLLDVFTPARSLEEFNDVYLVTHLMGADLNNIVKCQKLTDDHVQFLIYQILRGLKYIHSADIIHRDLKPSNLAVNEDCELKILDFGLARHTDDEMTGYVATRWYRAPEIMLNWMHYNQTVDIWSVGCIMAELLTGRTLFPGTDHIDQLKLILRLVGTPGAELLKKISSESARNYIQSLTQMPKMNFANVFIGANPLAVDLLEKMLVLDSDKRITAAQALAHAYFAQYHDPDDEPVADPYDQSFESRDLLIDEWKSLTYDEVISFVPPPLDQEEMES
Procedure: as §6

[3] = Table 2, read-out: Kinase Inhibition IC50 CDK9 cyclin T1
[4] = Table 2, read-out: Kinase Inhibition IC50 GSK-3β
[5] = Table 2, read-out: Kinase Inhibition IC50 CDK4 cyclin D1
[6] = Table 2, read-out: Kinase Inhibition IC50 CDK7 cyclin H
[7] = Table 2, read-out: Kinase Inhibition IC50 CDK1 cyclin B
[8] = Table 3 selectivity panel, read-out: Kinase specificity IC50 CDK9/T1
[9] = Table 3 selectivity panel, glycogen synthase kinase 3β, read-out: Kinase specificity IC50 GSK-3
[10] = Table 3 selectivity panel, read-out: Kinase specificity IC50 CDK4/D1
[11] = Table 3 selectivity panel, CDK7/cyclin H/MAT 1 complex, read-out: Kinase specificity IC50 CDK7/H
[12] = Table 3 selectivity panel, read-out: Kinase specificity IC50 CDK1/B1

Row | Compound | IC50 (A549; Table 4) [µM] | IC50 (CDK9/cyclin T1; [3]) [µM] | IC50 (GSK-3β; [4]) [µM] | IC50 (HT29; Table 4) [µM] | IC50 (CDK4/cyclin D1; [5]) [µM] | IC50 (Saos-2; Table 4) [µM] | IC50 (CDK7/cyclin H; [6]) [µM] | IC50 (CDK1/cyclin B; [7]) [µM] | IC50 (A549; Table 5, Lung) [µM] | IC50 (CCRF-CEM) [µM] | IC50 (CDK9/cyclin T1; [8]) [µM] | IC50 (SKUT-1) [µM] | IC50 (GSK-3β; [9]) [µM] | IC50 (DU-145) [µM] | IC50 (Hs27) [µM] | IC50 (WI38) [µM] | IC50 (SK-N-MC) [µM] | IC50 (HT29; Table 5, Colon) [µM] | IC50 (CDK7/cyclin H; [11]) [µM] | IC50 [2] [µM] | other results
1 | CCNc1nc(C)c(-c2ccnc(Nc3ccc(N4CCOCC4)cc3)n2)s1 [Compound 4, [4-(2-Ethylamino-4-methyl-thiazol-5-yl)-pyrimidin-2-yl]-(4-morpholin-4-yl-phenyl)-amine] | 0.77 | 1.8 | > 100 | 0.92 | 0.43 | 1.2 | 12 | 30 | – | – | – | – | – | – | – | – | – | – | – | – | –
2 | CC[C@@H](N)C(=O)Nc1nc(C)c(-c2ccnc(Nc3cccc([N+](=O)[O-])c3)n2)s1 [Compound 16, (2R)-2-Amino-N-{4-methyl-5-[2-(3-nitro-phenylamino)-pyrimidin-4-yl]-thiazol-2-yl}-butyramide] | 0.53 | 0.11 | 0.68 | 0.29 | 6.7 | – | 1.1 | 2.8 | 0.5 | 1.1 | 0.2 | 0.2 | 0.68 | 0.6 | > 5 | 1.4 | 0.4 | 0.3 | 0.97 | > 100 | IC50 (U2OS): 0.48 µM; IC50 (CDK4/cyclin D1; [10]): 6.7 µM; IC50 (K562): 2.5 µM; IC50 (Hela): 0.4 µM; IC50 (Saos-2; Table 5, Bone osteosarcoma): 0.6 µM; IC50 (CDK1/cyclin B; [12]): 2.8 µM; IC50 [1]: 11 µM
3 | Cc1nc(N)sc1-c1ccnc(Nc2ccc(N3CCOCC3)cc2)n1 [Compound 1, [4-(2-Amino-4-methyl-thiazol-5-yl)-pyrimidin-2-yl]-(4-morpholin-4-yl-phenyl)-amine] | 2.1 | – | – | 1.7 | – | 1.9 | 30 | – | 1 | 0.9 | – | 0.9 | – | 1.5 | > 5 | > 5 | 0.3 | 1.1 | 56 | > 100 | IC50 (U2OS): 2.1 µM; IC50 (K562): 3.8 µM; IC50 (Hela): 1.8 µM; IC50 (Saos-2; Table 5, Bone osteosarcoma): 0.1 µM
4 | Cc1nc(NC(=O)[C@H](N)[C@@H](C)O)sc1-c1ccnc(Nc2cccc([N+](=O)[O-])c2)n1 [Compound 15, (2R,3R)-2-Amino-3-hydroxy-N-{4-methyl-5-[2-(3-nitro-phenylamino)-pyrimidin-4-yl]-thiazol-2-yl}-butyramide] | 1.1 | 0.07 | 0.61 | 1 | 2 | 1.9 | 0.34 | 5.4 | 0.6 | 2.6 | 0.11 | 0.9 | 0.54 | 1.3 | 1.7 | > 5 | 0.5 | 0.5 | 0.39 | > 100 | IC50 (U2OS): 1.02 µM; IC50 (CDK4/cyclin D1; [10]): 1.6 µM; IC50 (K562): 4.6 µM; IC50 (Hela): 0.7 µM; IC50 (Saos-2; Table 5, Bone osteosarcoma): 0.4 µM; IC50 (CDK1/cyclin B; [12]): 1.6 µM; IC50 [1]: 3.9 µM
5 | CNc1nc(C)c(-c2ccnc(Nc3ccc(N4CCOCC4)cc3)n2)s1 [Compound 3, [4-(2-N-Methylamino-4-methyl-thiazol-5-yl)-pyrimidin-2-yl]-(4-morpholinophenyl)-amine] | 3.7 | 12 | > 100 | 2.8 | 1.4 | 3.1 | 106 | 71 | – | – | 8.5 | – | > 100 | – | – | – | – | – | > 100 | > 100 | IC50 (CDK4/cyclin D1; [10]): 0.15 µM; IC50 (CDK1/cyclin B; [12]): > 100 µM; IC50 [1]: > 100 µM
6 | Cc1nc(C)c(-c2ccnc(Nc3ccc(NC(=O)CN4CCCC4)cc3)n2)s1 [Compound 53, N-{4-[4-(2,4-Dimethyl-thiazol-5-yl)-pyrimidin-2-ylamino]-phenyl}-2-pyrrolidin-1-yl-acetamide] | 0.77 | 0.093 | 23 | 0.95 | 0.04 | 0.53 | 0.44 | 5.2 | – | – | – | – | – | – | – | – | – | – | – | – | –
